Results published in the supplement of paper PMC4862054.

How the values were obtained:
Conditions in all cases: incubation time: 72 h
BT-474 [1] = assay: normalised response (% of control), CellTox Green; higher = less cell death (100 = DMSO, 0 = benzethonium chloride kill control)
Procedure, shortened: (§1)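 Normalised signals at single concentrations make up the values. They come from breast cancer cell lines seeded (20 µl suspension) into 384-well plates with compound at 5 concentrations in 10-fold steps over a compound-specific 10,000-fold range, incubated 72 h, and read for CellTox Green fluorescence then CellTiter-Glo luminescence. Each plate was normalised to 0.1 % DMSO (100) and a positive kill control (0).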

BT-549 [2] = assay: as above
Procedure, shortened: as §1

CAL-120 [3] = assay: as above
Procedure, shortened: as §1

CAL-148 [4] = assay: as above
Procedure, shortened: as §1

CAL-51 [5] = assay: as above
Procedure, shortened: as §1

CAL-85-1 [6] = assay: as above
Procedure, shortened: as §1

DU-4475 [7] = assay: as above
Procedure, shortened: as §1

HCC1143 [8] = assay: as above
Procedure, shortened: as §1

HCC1599 [9] = assay: as above
Procedure, shortened: as §1

HCC1937 [10] = assay: as above
Procedure, shortened: as §1

HDQ-P1 [11] = assay: as above
Procedure, shortened: as §1

Hs578T [12] = assay: as above
Procedure, shortened: as §1

MCF-10A [13] = assay: as above
Procedure, shortened: as §1

MDA-MB-231 [14] = assay: as above
Procedure, shortened: as §1

MDA-MB-436 [15] = assay: as above
Procedure, shortened: as §1

MDA-MB-453 [16] = assay: as above
Procedure, shortened: as §1

MDA-MB-468 [17] = assay: as above
Procedure, shortened: as §1

MFM-223 [18] = assay: as above
Procedure, shortened: as §1

BT-474 [19] = assay: normalised response (% of control), CellTiter-Glo; higher = more viable cells (100 = DMSO, 0 = benzethonium chloride kill control)
Description: (§2)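 DSRT, 72 h incubation, CellTox Green / CellTiter-Glo readout. Signal is normalised to DMSO and benzethonium chloride controls. Value is the normalised response at the highest dose.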

BT-549 [20] = assay: as above
Description: as §2

CAL-120 [21] = assay: as above
Description: as §2

CAL-148 [22] = assay: as above
Description: as §2

CAL-51 [23] = assay: as above
Description: as §2

CAL-85-1 [24] = assay: as above
Description: as §2

DU-4475 [25] = assay: as above
Description: as §2

HCC1143 [26] = assay: as above
Description: as §2

HCC1599 [27] = assay: as above
Description: as §2

HCC1937 [28] = assay: as above
Description: as §2

HDQ-P1 [29] = assay: as above
Description: as §2

Hs578T [30] = assay: as above
Description: as §2

MCF-10A [31] = assay: as above
Description: as §2

MDA-MB-231 [32] = assay: as above
Description: as §2

MDA-MB-436 [33] = assay: as above
Description: as §2

MDA-MB-453 [34] = assay: as above
Description: as §2

MDA-MB-468 [35] = assay: as above
Description: as §2

MFM-223 [36] = assay: as above
Description: as §2

SK-BR-3 = assay: as above
Description: as §2

| Compound | normalised response (BT-474 [1]) [%] | normalised response (BT-549 [2]) [%] | normalised response (CAL-120 [3]) [%] | normalised response (CAL-148 [4]) [%] | normalised response (CAL-51 [5]) [%] | normalised response (CAL-85-1 [6]) [%] | normalised response (DU-4475 [7]) [%] | normalised response (HCC1143 [8]) [%] | normalised response (HCC1599 [9]) [%] | normalised response (HCC1937 [10]) [%] | normalised response (HDQ-P1 [11]) [%] | normalised response (Hs578T [12]) [%] | normalised response (MCF-10A [13]) [%] | normalised response (MDA-MB-231 [14]) [%] | normalised response (MDA-MB-436 [15]) [%] | normalised response (MDA-MB-453 [16]) [%] | normalised response (MDA-MB-468 [17]) [%] | normalised response (MFM-223 [18]) [%] | normalised response (BT-474 [19]) [%] | normalised response (BT-549 [20]) [%] | normalised response (CAL-120 [21]) [%] | normalised response (CAL-148 [22]) [%] | normalised response (CAL-51 [23]) [%] | normalised response (CAL-85-1 [24]) [%] | normalised response (DU-4475 [25]) [%] | normalised response (HCC1143 [26]) [%] | normalised response (HCC1599 [27]) [%] | normalised response (HCC1937 [28]) [%] | normalised response (HDQ-P1 [29]) [%] | normalised response (Hs578T [30]) [%] | normalised response (MCF-10A [31]) [%] | normalised response (MDA-MB-231 [32]) [%] | normalised response (MDA-MB-436 [33]) [%] | normalised response (MDA-MB-453 [34]) [%] | normalised response (MDA-MB-468 [35]) [%] | normalised response (MFM-223 [36]) [%] | normalised response (SK-BR-3) [%] |
| --- | --- | --- | --- | --- | --- | --- | --- | --- | --- | --- | --- | --- | --- | --- | --- | --- | --- | --- | --- | --- | --- | --- | --- | --- | --- | --- | --- | --- | --- | --- | --- | --- | --- | --- | --- | --- | --- |
| CCc1cncnc1N1CCN(Cc2nc3ccc(C(F)(F)F)cc3[nH]2)CC1 (10000 nM) | 93 | 95.6 | 99.6 | 103 | 94.5 | 67.3 | 104 | 117 | 99.2 | 90.2 | 63.1 | 72.9 | 105 | 118 | 102 | 99.9 | 103 | 103 | 85.8 | 83.9 | 89 | 95.4 | 49.3 | 91.8 | 89.9 | 90 | 85.7 | 82.1 | 102 | 95.7 | 93.8 | 95 | 95.7 | 81.6 | 70 | 78.3 | 89.5 |
| CC[C@@H]1C(=O)N(C)c2cnc(Nc3ccc(C(=O)NC4CCN(C)CC4)cc3OC)nc2N1C1CCCC1 [BI 2536] (1000 nM) | 97.5 | 90.3 | 79.6 | 70.4 | 32 | 43.9 | 95.1 | 113 | 92.2 | 109 | 93 | 29.2 | 100 | 101 | 102 | 101 | 98.3 | 90.7 | 75.9 | 28.3 | 52.5 | 79.9 | 31.7 | 44.7 | 75.6 | 39.3 | 26.5 | 74.7 | 66.6 | 24.2 | 44.4 | 72.4 | 73.8 | 58.9 | 42.3 | 55.6 | 26.9 |
| O=C(O)CCCCC(CCSCc1ccccc1)SCc1ccccc1 (configuration not stated) [CPI-613] (10000 nM) | 94.8 | 80.4 | 98.6 | 99.7 | 103 | 88.7 | 98.8 | 92.7 | 102 | 80.9 | 104 | 94.3 | 104 | 90.9 | 91.2 | 104 | 131 | 97.6 | 98.9 | 96.5 | 104 | 105 | 97.5 | 97.5 | 100 | 100 | 101 | 108 | 106 | 99.2 | 103 | 93.6 | 98.2 | 105 | 98.2 | 102 | 106 |
| O=C(O)C1(C(=O)O)CCC1.[NH2-].[NH2-].[Pt+2] [Carboplatin] (10000 nM) | 106 | 88.1 | 103 | 97.8 | 97.1 | 99.3 | 99.8 | – | 100 | 101 | 80.6 | 135 | 117 | 103 | 99.8 | 94.3 | 108 | 94 | 98.8 | 103 | 101 | 103 | 114 | 96.4 | 96.9 | 103 | 108 | 89.2 | 101 | 99.3 | 99.2 | 96.9 | 92.5 | 95.8 | 92.4 | 102 | 92.8 |
